Experimental data from PubChem BioAssay AID1963959 (Molecular Pharmacology Branch, DTP, NCI, 2024).

Test system: T-47D spheroids with HUVEC/MSC, viability
Assay: Anticancer human tumor T-47D cell line growth inhibition [PI3K];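 further: spheroids exposed to agents for seven days before reading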;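 on viability, T/C: percent of DMSO vehicle control luminescence so 100% = untreated growth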
Conditions: for IC50: curve of first compound; for viability, T/C: stronger effect = lower value
Summary of the method: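 High-throughput combination screen: PI3K inhibitors crossed with targeted small molecules on complex spheroids of tumor cells, HUVEC and MSCs at 37 degrees C, 5% CO2. Top concentration was at or near clinical Cmax (otherwise 10 microM), with half-log decrements.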

[1] = second compound 0.0316 µM, first compound 0.000316 µM
[2] = second compound 0.0316 µM, first compound 0.001 µM
[3] = second compound 0.0316 µM, first compound 0.00316 µM
[4] = second compound 0.0316 µM, first compound 0.01 µM
[5] = second compound 0.0316 µM, first compound 0.0316 µM
[6] = second compound 0.0316 µM, first compound 0.1 µM
[7] = second compound 0.1 µM, first compound 0.000316 µM
[8] = second compound 0.1 µM, first compound 0.001 µM
[9] = second compound 0.1 µM, first compound 0.00316 µM
[10] = second compound 0.1 µM, first compound 0.01 µM
[11] = second compound 0.1 µM, first compound 0.0316 µM
[12] = second compound 0.1 µM, first compound 0.1 µM
[13] = second compound 0.316 µM, first compound 0.000316 µM
[14] = second compound 0.316 µM, first compound 0.001 µM
[15] = second compound 0.316 µM, first compound 0.00316 µM
[16] = second compound 0.316 µM, first compound 0.01 µM
[17] = second compound 0.316 µM, first compound 0.0316 µM
[18] = second compound 0.316 µM, first compound 0.1 µM
[19] = second compound 1 µM, first compound 0.000316 µM
[20] = second compound 1 µM, first compound 0.001 µM
[21] = second compound 1 µM, first compound 0.00316 µM
[22] = second compound 1 µM, first compound 0.01 µM
[23] = second compound 1 µM, first compound 0.0316 µM
[24] = second compound 1 µM, first compound 0.1 µM

SMILES: Cn1cnc2c(F)c(Nc3ccc(Br)cc3Cl)c(C(=O)NOCCO)cc21 + CC(Nc1ccc2c(c1)OCCn1cc(N3C(=O)OCC3C(F)F)nc1-2)C(N)=O
- IC50 (second compound 0.00316 µM): > 3000 nM
- IC50 (second compound 0.01 µM): > 3000 nM
- IC50 (second compound 0.0316 µM): > 3000 nM
- IC50 (second compound 0.1 µM): > 3000 nM
- IC50 (second compound 0.316 µM): > 3000 nM
- IC50 (second compound 1 µM): 294 nM
- viability, T/C (second compound 0.00316 µM, first compound 0.00949 µM): 105%
- viability, T/C (second compound 0.00316 µM, first compound 0.03 µM): 84.7%
- viability, T/C (second compound 0.00316 µM, first compound 0.0949 µM): 99.8%
- viability, T/C (second compound 0.00316 µM, first compound 0.3 µM): 91.8%
- viability, T/C (second compound 0.00316 µM, first compound 0.949 µM): 86.1%
- viability, T/C (second compound 0.00316 µM, first compound 3 µM): 79.2%
- viability, T/C (second compound 0.01 µM, first compound 0.00949 µM): 97.5%
- viability, T/C (second compound 0.01 µM, first compound 0.03 µM): 80.4%
- viability, T/C (second compound 0.01 µM, first compound 0.0949 µM): 96.1%
- viability, T/C (second compound 0.01 µM, first compound 0.3 µM): 98.8%
- viability, T/C (second compound 0.01 µM, first compound 0.949 µM): 82.3%
- viability, T/C (second compound 0.01 µM, first compound 3 µM): 88.5%
- viability, T/C (second compound 0.0316 µM, first compound 0.00949 µM): 95.5%
- viability, T/C (second compound 0.0316 µM, first compound 0.03 µM): 80.5%
- viability, T/C (second compound 0.0316 µM, first compound 0.0949 µM): 101%
- viability, T/C (second compound 0.0316 µM, first compound 0.3 µM): 96.6%
- viability, T/C (second compound 0.0316 µM, first compound 0.949 µM): 97.8%
- viability, T/C (second compound 0.0316 µM, first compound 3 µM): 86.4%
- viability, T/C (second compound 0.1 µM, first compound 0.00949 µM): 85.6%
- viability, T/C (second compound 0.1 µM, first compound 0.03 µM): 86.1%
- viability, T/C (second compound 0.1 µM, first compound 0.0949 µM): 83.5%
- viability, T/C (second compound 0.1 µM, first compound 0.3 µM): 90.2%
- viability, T/C (second compound 0.1 µM, first compound 0.949 µM): 86.5%
- viability, T/C (second compound 0.1 µM, first compound 3 µM): 83.8%
- viability, T/C (second compound 0.316 µM, first compound 0.00949 µM): 71.3%
- viability, T/C (second compound 0.316 µM, first compound 0.03 µM): 75.3%
- viability, T/C (second compound 0.316 µM, first compound 0.0949 µM): 70.3%
- viability, T/C (second compound 0.316 µM, first compound 0.3 µM): 66.5%
- viability, T/C (second compound 0.316 µM, first compound 0.949 µM): 71.8%
- viability, T/C (second compound 0.316 µM, first compound 3 µM): 61.1%
- viability, T/C (second compound 1 µM, first compound 0.00949 µM): 54%
- viability, T/C (second compound 1 µM, first compound 0.03 µM): 56.8%
- viability, T/C (second compound 1 µM, first compound 0.0949 µM): 59.2%
- viability, T/C (second compound 1 µM, first compound 0.3 µM): 49.7%
- viability, T/C (second compound 1 µM, first compound 0.949 µM): 47.8%
- viability, T/C (second compound 1 µM, first compound 3 µM): 52.2%

SMILES: Cn1ncnc1[C@H]1c2n[nH]c(=O)c3cc(F)cc(c23)N[C@@H]1c1ccc(F)cc1 + COc1c(OCCCN2CCOCC2)ccc2c3n(c(=NC(=O)c4cnc(N)nc4)nc12)CCN3
- IC50 (second compound 0.00316 µM): > 100 nM
- IC50 (second compound 0.01 µM): > 100 nM
- IC50 (second compound 0.0316 µM): > 100 nM
- IC50 (second compound 0.1 µM): < 0.316 nM
- IC50 (second compound 0.316 µM): < 0.316 nM
- IC50 (second compound 1 µM): < 0.316 nM
- viability, T/C (second compound 0.00316 µM, first compound 0.000316 µM): 102%
- viability, T/C (second compound 0.00316 µM, first compound 0.001 µM): 87.4%
- viability, T/C (second compound 0.00316 µM, first compound 0.00316 µM): 112%
- viability, T/C (second compound 0.00316 µM, first compound 0.01 µM): 104%
- viability, T/C (second compound 0.00316 µM, first compound 0.0316 µM): 109%
- viability, T/C (second compound 0.00316 µM, first compound 0.1 µM): 101%
- viability, T/C (second compound 0.01 µM, first compound 0.000316 µM): 114%
- viability, T/C (second compound 0.01 µM, first compound 0.001 µM): 83.9%
- viability, T/C (second compound 0.01 µM, first compound 0.00316 µM): 93.7%
- viability, T/C (second compound 0.01 µM, first compound 0.01 µM): 79.3%
- viability, T/C (second compound 0.01 µM, first compound 0.0316 µM): 99.5%
- viability, T/C (second compound 0.01 µM, first compound 0.1 µM): 94.1%
- viability, T/C [1]: 72.9%
- viability, T/C [2]: 72.8%
- viability, T/C [3]: 85%
- viability, T/C [4]: 71.4%
- viability, T/C [5]: 75.1%
- viability, T/C [6]: 64.8%
- viability, T/C [7]: 40.9%
- viability, T/C [8]: 47.6%
- viability, T/C [9]: 41.2%
- viability, T/C [10]: 34.1%
- viability, T/C [11]: 40.7%
- viability, T/C [12]: 39%
- viability, T/C [13]: 18.9%
- viability, T/C [14]: 20.8%
- viability, T/C [15]: 15.2%
- viability, T/C [16]: 17.1%
- viability, T/C [17]: 14.8%
- viability, T/C [18]: 15.1%
- viability, T/C [19]: 5.24%
- viability, T/C [20]: 6.61%
- viability, T/C [21]: 7.38%
- viability, T/C [22]: 7.19%
- viability, T/C [23]: 5.03%
- viability, T/C [24]: 6.71%

SMILES: Cn1ncnc1[C@H]1c2n[nH]c(=O)c3cc(F)cc(c23)N[C@@H]1c1ccc(F)cc1 + Cc1nc(NC(=O)N2CCCC2C(N)=O)sc1-c1ccnc(C(C)(C)C(F)(F)F)c1
- IC50 (second compound 0.0316 µM): > 100 nM
- IC50 (second compound 0.1 µM): > 100 nM
- IC50 (second compound 0.316 µM): > 100 nM
- IC50 (second compound 1 µM): > 100 nM
- IC50 (second compound 3.16 µM): > 100 nM
- IC50 (second compound 10 µM): < 0.316 nM
- viability, T/C [1]: 105%
- viability, T/C [2]: 103%
- viability, T/C [3]: 99%
- viability, T/C [4]: 99.9%
- viability, T/C [5]: 86.8%
- viability, T/C [6]: 98.8%
- viability, T/C [7]: 106%
- viability, T/C [8]: 96.3%
- viability, T/C [9]: 95.5%
- viability, T/C [10]: 106%
- viability, T/C [11]: 99.5%
- viability, T/C [12]: 86.7%
- viability, T/C [13]: 105%
- viability, T/C [14]: 97.5%
- viability, T/C [15]: 105%
- viability, T/C [16]: 87%
- viability, T/C [17]: 94.5%
- viability, T/C [18]: 86.5%
- viability, T/C [19]: 101%
- viability, T/C [20]: 89.3%
- viability, T/C [21]: 85.1%
- viability, T/C [22]: 89.4%
- viability, T/C [23]: 87.7%
- viability, T/C [24]: 90.5%
- viability, T/C (second compound 3.16 µM, first compound 0.000316 µM): 65.1%
- viability, T/C (second compound 3.16 µM, first compound 0.001 µM): 70.8%
- viability, T/C (second compound 3.16 µM, first compound 0.00316 µM): 63.4%
- viability, T/C (second compound 3.16 µM, first compound 0.01 µM): 63.6%
- viability, T/C (second compound 3.16 µM, first compound 0.0316 µM): 71.5%
- viability, T/C (second compound 3.16 µM, first compound 0.1 µM): 69.2%
- viability, T/C (second compound 10 µM, first compound 0.000316 µM): 39%
- viability, T/C (second compound 10 µM, first compound 0.001 µM): 34.8%
- viability, T/C (second compound 10 µM, first compound 0.00316 µM): 36.8%
- viability, T/C (second compound 10 µM, first compound 0.01 µM): 34.1%
- viability, T/C (second compound 10 µM, first compound 0.0316 µM): 32.9%
- viability, T/C (second compound 10 µM, first compound 0.1 µM): 38.9%
